Measured values reported in publication PMC8717366, “Synthesis and Pharmacological Characterization of Visabron, a Backbone Cyclic Peptide Dual Antagonist of α4β1 (VLA-4)/α9β1 Integrin for Therapy of Multiple Sclerosis” (JACS Au, 2021).
Read-outs that look alike come from different tables or passages of the source. Numbered stars: 1 amine (or outer) side, 2 acyl side, 3 side chain; on linkers, the order of the positions; unused ones are H or OH. Bridge positions count the residues as written; N and C are the ends. Square brackets hold non-standard residues; d marks the D form. Peptide text beside a SMILES is read from it. CO = O=C([*:1])[*:2]; Nlys = NCCCCNCC(=O)O

Legend:
EGFR = target: T1, EGFR (Homo sapiens, UniProt P00533); test: PhosphoSens CSox-based kinase assay, EGFR; type: biochemical; details: 1 mM, but not 0.1 mM; Figure 7
T1 construct: purchased BPS BS 40187
T1 sequence (P00533 25-1210): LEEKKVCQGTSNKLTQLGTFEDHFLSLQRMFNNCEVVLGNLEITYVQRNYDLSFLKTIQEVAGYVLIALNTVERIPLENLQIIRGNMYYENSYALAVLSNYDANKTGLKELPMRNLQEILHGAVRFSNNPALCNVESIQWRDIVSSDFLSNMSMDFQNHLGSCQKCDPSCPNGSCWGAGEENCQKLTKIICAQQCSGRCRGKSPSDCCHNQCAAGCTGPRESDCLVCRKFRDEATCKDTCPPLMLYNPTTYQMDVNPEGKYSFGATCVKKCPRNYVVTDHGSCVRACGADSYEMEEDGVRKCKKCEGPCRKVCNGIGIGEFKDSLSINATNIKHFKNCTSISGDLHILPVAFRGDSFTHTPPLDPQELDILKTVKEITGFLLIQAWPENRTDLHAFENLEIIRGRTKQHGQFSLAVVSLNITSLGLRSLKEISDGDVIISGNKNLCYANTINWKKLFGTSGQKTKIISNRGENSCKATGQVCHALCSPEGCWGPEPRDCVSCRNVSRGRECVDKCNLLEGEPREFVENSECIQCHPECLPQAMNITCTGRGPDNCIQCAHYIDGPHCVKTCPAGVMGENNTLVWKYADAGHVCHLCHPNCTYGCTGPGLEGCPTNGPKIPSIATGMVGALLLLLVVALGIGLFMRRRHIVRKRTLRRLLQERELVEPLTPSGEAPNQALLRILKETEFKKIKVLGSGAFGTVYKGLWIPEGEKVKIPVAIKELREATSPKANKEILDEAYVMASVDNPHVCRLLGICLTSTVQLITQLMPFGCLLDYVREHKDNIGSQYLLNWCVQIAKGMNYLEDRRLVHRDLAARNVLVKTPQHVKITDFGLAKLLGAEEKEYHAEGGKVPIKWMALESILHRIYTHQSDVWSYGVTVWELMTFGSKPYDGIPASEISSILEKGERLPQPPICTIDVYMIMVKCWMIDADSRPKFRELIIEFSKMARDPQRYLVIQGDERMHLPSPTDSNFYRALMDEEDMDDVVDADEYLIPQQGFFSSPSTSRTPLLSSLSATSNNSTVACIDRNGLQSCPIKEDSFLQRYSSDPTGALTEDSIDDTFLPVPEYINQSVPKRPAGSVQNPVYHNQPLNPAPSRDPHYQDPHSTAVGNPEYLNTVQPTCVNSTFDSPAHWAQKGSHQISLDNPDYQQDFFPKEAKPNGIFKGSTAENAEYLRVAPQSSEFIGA
Method: Kinase activity was measured using the PhosphoSenstechnology (AssayQuant Technologies Inc., Marlborough, MA) as detailed in the Supporting Information. […]
Visabron c (4-4) safety by in vitro evaluation using PhosphoSens - CSox based kinase assays:
A powerful method was used to measure the activity of recombinant protein kinases using a homogeneous and continuous (kinetic) format, where the level of chelation-enhanced fluorescence (CHEF) that is directly proportional to the amount of phosphorylated, real-time sensors consisting of sulfonamido-oxine (Sox) chromophore, linked to a peptide or protein substrates of selective kinases 6. […]
Kinase activity measurements: Kinase activity was measured continuously using the PhosphoSens® technology (AssayQuant Technologies Inc., Marlborough, MA) according to the manufacturers’ recommendations. This one-step homogeneous assay format uses chelation -enhanced fluorescence via optimized substrate sensors containing the unnatural fluorogenic amino -acid Sox. […]
Final reaction conditions : Protein kinase activity was determined in 54 mM HEPES, pH 7.5, 1 mM ATP, 1.2 mM DTT, 0.012% Brij-35, 0.52 mM EGTA, 10 mM MgCl2, 1% glycerol, 0.2mg/ml BSA, and 15 μM Sox -based sensor. […]

[1] = 48 h
Method: Eight-week-old C57Bl/6 mice were obtained from Envigo animal breeding center in Israel. All experiments were approved by the Institutional Animal Care and Use Committee, and performed according to OECD guidelines for chemical testing. One group of five mice (7683–87) received visabron c (4–4) by iv injection in a volume of 0.2 mL/mouse at a dose of 10 mg/mice (about 500 mg/kg), and another group of five mice (7688–92) received per-os visabron c (4–4) at a dose of 10 mg/mice, dissolved in a nanoemulsifying drug delivery system,[48] in a bolus of 0.4 mL/mouse. After 48 h of exposure, the animals were sacrificed and the organs were harvested for the detection of possible toxicological lesions in the framework of a safety assessment. Then the organs were fixed in 4% formaldehyde, trimmed in a standard position per organ, and transferred to embedding cassettes. Paraffin blocks were sectioned at approximately 3–5 μm thickness. The sections were applied on a glass slide and stained with hematoxylin and eosin (H&E). Pictures were taken on a microscope (Olympus BX60) at magnifications of X4 and X10 using the microscope’s camera (Olympus DP73). An experienced pathologist (Dr. Loeb Emanuel) examined the slides. Microscopically findings were classified with standard pathological nomenclature and the severity of the findings was graded on a scale of minimal, mild, or severe. Grades of severity for microscopic findings were subjective; minimal was the least extent discernible and severe was the greatest extent possible.
Table S11. Histological pathological grades of organs slides obtained from mice treated for 48 h with 500 mg/kg Visabron c(4-4)*
Number** Heart Lung Kidney Intestine Large Stomach Spleen Liver Brain […]
*Grade 0: no signs of pathological changes; Grade 1: mild pathological changes; Grade 2: moderate pathological changes; Grade 3: severe pathological changes.

[2] = 500 mg/kg i.v., all five mice 7683-7687
[3] = 500 mg/kg per os, all five mice 7688-7692

For `CSCC[C@@H]1NC(=O)[C@H]([C@@H](C)O)NC(=O)CN(C(=O)[C@@H](N)CCCCN)CCCCNC(=O)NCCCCN(CC(=O)N[C@@H](CC(C)C)C(N)=O)C(=O)[C@H](CC(=O)O)NC(=O)[C@H](CC(C)C)NC1=O` [visabron c (4–4)] (H-K[Nlys]TMLD[Nlys]L-NH2; linker 2-7 via CO), which inhibition at 1000 µM (EGFR) is on record?
Its inhibition at 1000 µM is 25 to 40%.

What about the “Histological pathological grade, Brain” value [1, 2] of the same compound?
The value was 0.

What about the “Histological pathological grade, Heart” value [1, 2] of the same compound?
Its value is 0.

And the “Histological pathological grade, Kidney” value [1, 2]?
Its value is 0.

And the “Histological pathological grade, Liver” value [1, 2]?
Its value is 0.

And the “Histological pathological grade, Lung” value [1, 2]?
Its value is 0.

What about the “Histological pathological grade, Small Intestine” value [1, 2] of the same compound?
Its value is 0.

What about the “Histological pathological grade, Spleen” value [1, 2] of the same compound?
The value was 0.

And the “Histological pathological grade, Stomach” value [1, 2]?
The value was 0.

And the “Histological pathological grade, Large Intestine” value ([1]; 500 mg/kg i.v., mouse 7683)?
The value was 0.

And the “Histological pathological grade, Large Intestine” value ([1]; 500 mg/kg i.v., mouse 7684, finding considered accidental, most probably not related to the tested compound)?
The value was 3.

And the “Histological pathological grade, Large Intestine” value ([1]; 500 mg/kg i.v., mouse 7685, finding considered accidental, most probably not related to the tested compound)?
The value was 3.

And the “Histological pathological grade, Large Intestine” value ([1]; 500 mg/kg i.v., mouse 7686)?
The value was 0.

And the “Histological pathological grade, Large Intestine” value ([1]; 500 mg/kg i.v., mouse 7687)?
The value was 0.

What about the “Histological pathological grade, Brain” value [1, 3] of the same compound?
Its value is 0.

What about the “Histological pathological grade, Heart” value [1, 3] of the same compound?
Its value is 0.

And the “Histological pathological grade, Kidney” value [1, 3]?
Its value is 0.

What about the “Histological pathological grade, Liver” value [1, 3] of the same compound?
The value was 0.

What about the “Histological pathological grade, Lung” value [1, 3] of the same compound?
Its value is 0.

What about the “Histological pathological grade, Small Intestine” value [1, 3] of the same compound?
The value was 0.

And the “Histological pathological grade, Spleen” value [1, 3]?
The value was 0.

And the “Histological pathological grade, Stomach” value [1, 3]?
The value was 0.

And the “Histological pathological grade, Large Intestine” value ([1]; 500 mg/kg per os, mouse 7688)?
Its value is 0.

What about the “Histological pathological grade, Large Intestine” value ([1]; 500 mg/kg per os, mouse 7689) of the same compound?
Its value is 0.

And the “Histological pathological grade, Large Intestine” value ([1]; 500 mg/kg per os, mouse 7690, finding considered accidental, most probably not related to the tested compound)?
The value was 2.

What about the “Histological pathological grade, Large Intestine” value ([1]; 500 mg/kg per os, mouse 7691) of the same compound?
Its value is 0.

And the “Histological pathological grade, Large Intestine” value ([1]; 500 mg/kg per os, mouse 7692)?
Its value is 0.

And the “Short-term adverse pathological effects on major organs” value ([1]; i.v. or per o.s., 500 mg/kg)?
Its value is “without short-term adverse pathological effects”.
